Data as given in patent publication US11298412B2, “Sphingoid compounds for prophylaxis and/or therapy of coronaviridae infection” (priority 2020, dated 2022).
“Also recorded” adds a separate entry of the source.

Experiments:
[1] = Surface sphingosine in mouse nasal mucosa after intranasal application, in situ sphingosine kinase assay; type: in vivo; settings: wild-type mice; 10 μL of 10 μM or 100 μM into the nostrils; 1, 4 and 8 hrs; without washing
Protocol: Sphingosine (SPH) was applied into the nose of wild-type mice and the concentration of sphingosine on the epithelial cell surface was determined after 1, 4 and 8 hrs (a.i.: after injection of sphingosine). To this end, 10 μL of a 10 μM or a 100 μM sphingosine solution was applied into the nostrils of wild-type mice. Controls received the solvent, i.e. octylglucopyranoside at the same concentration used when sphingosine was applied, or were left untreated. Mice were slightly and very briefly anesthetized with ether. For the intranasal application we used a blunt-end 30 g needle that was covered with a thin plastic film. The blunt-ended needle was inserted into the nostrils approximately 2 mm. Mice were sacrificed after the indicated time, the nasal bone was removed, placed on a 30° C. pre-warmed plastic plate and an area of 2 mm×2 mm was immediately incubated with 0.001 units of sphingosine kinase 1 (#6068-SK-010, R&D) in 4 μl of 150 mM sodium acetate (pH 7.4), 1 μM ATP, and 10 μCi [^32P]γATP/sample. Controls were incubated with the same buffer without sphingosine kinase or were left untreated. […] The TLC plates were analyzed with a phosphoimager. Surface sphingosine levels were determined with a standard curve of C18-sphingosine. […]

[2] = system: human nasal epithelial cells; test: Toxicity on human nasal epithelial cells; settings: as per the Vero cell studies
rhinovirus 14 (RV14) = test: RV14 infection of freshly isolated human epithelial cells, Hela cytotoxicity readout; type: cell-based; settings: 10 μM or 20 μM, 24 hrs
Protocol: 10^4 PFU of Rhinovirus 2 or 14 (RV2, RV14) were incubated with freshly isolated human epithelial cells for 24 hrs in the presence of 10 μM or 20 μM sphingosine (SPH) or the corresponding concentration of the solvent octylglucopyranoside (OGP), the cells were pelleted, supernatants completely removed, the cell pellets resuspended in PBS and added to Hela cells. Cells were incubated for 3 days and cytotoxicity as measurement for virus titers was determined. Shown is the mean±SD, n=4, *p<0.001 ANOVA.

[3] = system: epithelial cells of the nose; test: Toxicity of intranasal sphingosine on nasal epithelial cells of mice, Trypan Blue; type: in vivo; settings: wild-type mice; 10 μL of 10 μM or 100 μM intranasal; 8 hours or 24 hours
Protocol: Sphingosine was applied into the nose of wild-type mice as in 3.2. 10 μL of a 10 μM or a 100 μM sphingosine (SPH) solution was administered into the nostrils of wild-type mice. Controls received the solvent, i.e. octylglucopyranoside at the same concentration used when sphingosine was applied, or were left untreated. Mice were anesthetized prior to application of sphingosine. Mice were sacrificed after 8 hours or 24 hours, the nasal bone was removed and incubated in Trypsin solution for 10 min to release and isolate epithelial cells. Cells were washed twice in H/S (20 mM HEPES, 132 mM NaCl, 5 mM KCl, 1 mM CaCl2), 0.7 mM MgCl2, 0.8 mM MgSO4, pH 7.4), stained with Trypan Blue (0.2% final concentration) and dead cells were counted in aliquots of 500 cells. Given is the percentage of dead cells±SD from 4 independent experiments each; *p<0.05, ANOVA.

[4] = molecular target: pp-VSV-SARS-CoV-2 / recombinant ACE2 (Homo sapiens, UniProt Q9BYF1); test: Binding of pp-VSV-SARS-CoV-2 to immobilized recombinant ACE2, Vero infection with supernatant; settings: 1 or 2 μM sphingosine; immobilized Fc-ACE2
Sequence of pp-VSV-SARS-CoV-2 / recombinant ACE2 (Q9BYF1 18-740): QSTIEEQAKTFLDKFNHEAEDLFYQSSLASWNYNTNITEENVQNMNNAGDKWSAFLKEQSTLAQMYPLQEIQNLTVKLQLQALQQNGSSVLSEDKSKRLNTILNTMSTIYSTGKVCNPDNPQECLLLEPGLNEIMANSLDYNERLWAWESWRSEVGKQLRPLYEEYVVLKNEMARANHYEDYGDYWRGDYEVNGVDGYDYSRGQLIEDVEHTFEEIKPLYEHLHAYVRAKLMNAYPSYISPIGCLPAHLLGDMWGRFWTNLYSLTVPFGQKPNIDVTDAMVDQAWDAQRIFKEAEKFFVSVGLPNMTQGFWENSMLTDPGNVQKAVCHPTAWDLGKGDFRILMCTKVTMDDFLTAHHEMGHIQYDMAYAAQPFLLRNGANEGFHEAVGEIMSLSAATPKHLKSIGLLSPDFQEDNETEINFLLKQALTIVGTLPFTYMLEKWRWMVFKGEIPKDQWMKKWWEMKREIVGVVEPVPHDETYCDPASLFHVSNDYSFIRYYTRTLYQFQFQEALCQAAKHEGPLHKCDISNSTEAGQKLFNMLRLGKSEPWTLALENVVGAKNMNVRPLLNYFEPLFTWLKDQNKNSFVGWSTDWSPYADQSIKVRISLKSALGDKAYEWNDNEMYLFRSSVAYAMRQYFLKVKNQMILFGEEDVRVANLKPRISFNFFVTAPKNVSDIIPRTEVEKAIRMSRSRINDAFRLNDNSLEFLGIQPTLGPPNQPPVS

Structure (SMILES): CCCCCCCCCCCCC/C=C/[C@@H](O)[C@@H](N)CO [sphingosine, (2S,3R,4E)-2-amino-4-octadecene-1,3-diol]
- sphingosine concentration on the nasal epithelial cell surface / in the mucosa [1]: dose-dependent accumulation of sphingosine in the mucosa; also recorded: dose dependent increase in the local sphingosine concentration in the nasal mucosa
- toxic effects on nasal epithelial cells [2]: no toxic effects on nasal epithelial cells; also recorded: without negative effects on the cells
- infection of human epithelial cells by RV14 (rhinovirus 14 (RV14)): abrogates infection of human epithelial cells; also recorded: prevents infection of freshly isolated human nasal epithelial cells
- toxic effects on nasal epithelial cells (percentage of dead cells) [3]: no toxic effects on epithelial cells of the nose; also recorded: no toxic side effects
- binding of intact pp-VSV-SARS-CoV-2 to recombinant ACE2 [4]: abrogated binding of intact pp-VSV-SARS-CoV-2 to recombinant ACE2; also recorded: prevents binding of SARS-CoV-2 spike protein to the ACE2 receptor
